In paper PMC7031696 (Cell chemical biology, 2019):
Where two headings read alike, the source gives them in different places.

What was measured:
[1] = tested on: 3D7-MR4 trophozoite parasite-infected RBCs; assay: Metabolomic profiling (hydrophilic metabolite changes, UHPLC-MS); format: cell-based, Plasmodium falciparum
[2] = tested on: Plasmodium falciparum 3D7-A10 parasites; assay: Stage specificity assay (8-h exposure of synchronized stages, IC50^8h); format: cell-based; conditions: for IC50: Plasmodium falciparum
[3] = tested on: asynchronous 3D7-A10 parasite cultures; assay: Standard 72-h exposure asexual blood stage susceptibility assay (IC50^72h); format: cell-based, Plasmodium falciparum; conditions: Plasmodium falciparum, 3D7, 72 h, read-out: Overall (72hr assay) Mean IC50 (IC50^72h)

SMILES: OC(c1cc(C(F)(F)F)nc2c(C(F)(F)F)cccc12)C1CCCCN1 (stereo not drawn) [Mefloquine, reference compound]
- changes within the set of metabolites detected (low fold change group) ([1]; 10 × IC50^72h, 2.5 hr, trophozoites): did not induce major changes
- Log2(fold changes) 3-phosphoglycerate ([1]; metabolite 3-phosphoglycerate, log2 fold change): 0.2359
- Log2(fold changes) 4-Pyridoxic acid ([1]; metabolite 4-Pyridoxic acid, log2 fold change): 0.0740
- Log2(fold changes) 4-aminobutyrate ([1]; metabolite 4-aminobutyrate, log2 fold change): -0.0258
- Log2(fold changes) 4-phosphopantetheine ([1]; metabolite 4-phosphopantetheine, log2 fold change): 0.0000
- Log2(fold changes) 4-phosphopantothenate ([1]; metabolite 4-phosphopantothenate, log2 fold change): 0.0024
- Log2(fold changes) 5-aminopentanoic acid ([1]; metabolite 5-aminopentanoic acid, log2 fold change): 0.0000
- Log2(fold changes) 5-methyl-THF ([1]; metabolite 5-methyl-THF, log2 fold change): 0.0000
- Log2(fold changes) 5-phosphoribosyl-1-pyrophosphate ([1]; metabolite 5-phosphoribosyl-1-pyrophosphate, log2 fold change): 0.0000
- Log2(fold changes) 6-phospho-D-gluconate ([1]; metabolite 6-phospho-D-gluconate, log2 fold change): -0.0079
- Log2(fold change) HVDD ([1]; metabolite HVDD): 0.0000
- Log2(fold change) Hydroxyisocaproic acid ([1]; metabolite Hydroxyisocaproic acid): 0.0000
- Log2(fold change) IDP ([1]; metabolite IDP): 0.0640
- Log2(fold change) IMP ([1]; metabolite IMP): -0.0534
- Log2(fold change) Inositol ([1]; metabolite Inositol): 0.0000
- Log2(fold change) Isopentyl-PP ([1]; metabolite Isopentyl-PP): 0.0000
- Log2(fold change) L-arginino-succinate ([1]; metabolite L-arginino-succinate): -0.3693
- Log2(fold change) LD ([1]; metabolite LD): 0.0808
- Log2(fold change) Myristoyl/tetradecanoyl-CoA ([1]; metabolite Myristoyl/tetradecanoyl-CoA): 0.0941
- Log2(fold change) N-Acetyl-L-alanine ([1]; metabolite N-Acetyl-L-alanine): -0.2190
- Log2(fold change) N-acetyl-L-ornithine ([1]; metabolite N-acetyl-L-ornithine): -0.0436
- Log2(fold change) N-acetyl-glucosamine-1/6-phosphate ([1]; metabolite N-acetyl-glucosamine-1/6-phosphate): 0.0000
- Log2(fold change) N-acetyl-glutamate ([1]; metabolite N-acetyl-glutamate): 0.0134
- Log2(fold change) N-acetyl-glutamine ([1]; metabolite N-acetyl-glutamine): 0.0000
- Log2(fold change) N-carbamoyl-L-aspartate ([1]; metabolite N-carbamoyl-L-aspartate): 0.0293
- Log2(fold change) NAD+ ([1]; metabolite NAD+): -0.0636
- Log2(fold change) NADH ([1]; metabolite NADH): 0.0000
- Log2(fold change) NADP+ ([1]; metabolite NADP+): -0.0054
- Log2(fold change) NADPH ([1]; metabolite NADPH): 0.3297
- Log2(fold change) O-acetyl-L-serine ([1]; metabolite O-acetyl-L-serine): 0.0000
- Log2(fold change) Octoluse 8/1P ([1]; metabolite Octoluse 8/1P): -0.0524
- Log2(fold change) Octoluse Bisphosphate ([1]; metabolite Octoluse Bisphosphate): -0.1015
- Log2(fold change) PD ([1]; metabolite PD): -0.1757
- Log2(fold change) PE ([1]; metabolite PE): -0.0476
- Log2(fold change) PEE ([1]; metabolite PEE): 0.0186
- Log2(fold change) PEEK ([1]; metabolite PEEK): 0.1844
- Log2(fold change) PVNF ([1]; metabolite PVNF): 0.0025
- Log2(fold change) Pyroglutamic acid ([1]; metabolite Pyroglutamic acid): -0.3976
- Log2(fold change) Pyrophosphate ([1]; metabolite Pyrophosphate): 0.0000
- Log2(fold change) Ribose-5-phosphate ([1]; metabolite Ribose-5-phosphate): 0.0147
- Log2(fold change) S-adenosyl-L-homocysteine ([1]; metabolite S-adenosyl-L-homocysteine): 0.1505
- Log2(fold change) S-adenosyl-L-methioninamine ([1]; metabolite S-adenosyl-L-methioninamine): 0.0000
- Log2(fold change) S-adenosyl-L-methionine ([1]; metabolite S-adenosyl-L-methionine): 0.0000
- Log2(fold change) S-methyl-5'-thioadenosine ([1]; metabolite S-methyl-5'-thioadenosine): 0.0813
- Log2(fold change) SD ([1]; metabolite SD): -0.0876
- Log2(fold change) SDL ([1]; metabolite SDL): -0.0202
- Log2(fold change) SID ([1]; metabolite SID): 0.0863
- Log2(fold change) Sedoheptulose bisphosphate ([1]; metabolite Sedoheptulose bisphosphate): 0.1126
- Log2(fold change) Thiamine pyrophosphate ([1]; metabolite Thiamine pyrophosphate): -0.0341
- Log2(fold changes) UDP-D-glucose ([1]; metabolite UDP-D-glucose, log2 fold change): 0.0242
- Log2(fold changes) UDP-D-glucuronate ([1]; metabolite UDP-D-glucuronate, log2 fold change): 0.0727
- Log2(fold changes) UDP-N-acetyl-glucosamine ([1]; metabolite UDP-N-acetyl-glucosamine, log2 fold change): -0.0280
- Log2(fold changes) UDP ([1]; metabolite UDP, log2 fold change): -0.6698
- Log2(fold changes) UMP ([1]; metabolite UMP, log2 fold change): -0.1565
- Log2(fold changes) UTP ([1]; metabolite UTP, log2 fold change): 0.0862
- Log2(fold change) hydroxyphenylpyruvate ([1]; metabolite hydroxyphenylpyruvate): 0.0000
- Log2(fold change) hydroxyproline/Aminolevulinate ([1]; metabolite hydroxyproline/Aminolevulinate): 0.0725
- Log2(fold change) hypoxanthine ([1]; metabolite hypoxanthine): 0.0000
- Log2(fold change) indole ([1]; metabolite indole): 0.0000
- Log2(fold change) inosine ([1]; metabolite inosine): -0.4356
- Log2(fold change) isoleucine ([1]; metabolite isoleucine): -0.0171
- Log2(fold change) lactate ([1]; metabolite lactate): -0.5208
- Log2(fold change) leucine ([1]; metabolite leucine): -0.1746
- Log2(fold change) lysine ([1]; metabolite lysine): -0.1798
- Log2(fold change) malate ([1]; metabolite malate): -0.0910
- Log2(fold change) maleic acid ([1]; metabolite maleic acid): -0.0602
- Log2(fold change) methionine ([1]; metabolite methionine): -0.0405
- Log2(fold change) myo-inositol ([1]; metabolite myo-inositol): -0.7507
- Log2(fold change) nicotinamide mononucleotide ([1]; metabolite nicotinamide mononucleotide): -0.0942
- Log2(fold change) nicotinate ([1]; metabolite nicotinate): -0.4821
- Log2(fold change) ornithine ([1]; metabolite ornithine): 0.0000
- Log2(fold change) orotate ([1]; metabolite orotate): -0.4063
- Log2(fold change) orotidine-5'-phosphate ([1]; metabolite orotidine-5'-phosphate): -0.7157
- Log2(fold change) oxaloacetate ([1]; metabolite oxaloacetate): 0.0000
- Log2(fold change) p-aminobenzoate ([1]; metabolite p-aminobenzoate): 0.0000
- Log2(fold change) p-hydroxybenzoate ([1]; metabolite p-hydroxybenzoate): 0.0000
- Log2(fold change) pantothenate ([1]; metabolite pantothenate): 0.0000
- Log2(fold change) phenylalanine ([1]; metabolite phenylalanine): -0.1685
- Log2(fold change) phenylpyruvate ([1]; metabolite phenylpyruvate): 0.0000
- Log2(fold change) phosphoenolpyruvate ([1]; metabolite phosphoenolpyruvate): 0.1912
- Log2(fold change) prephenate ([1]; metabolite prephenate): 0.0000
- Log2(fold change) proline ([1]; metabolite proline): -0.3045
- Log2(fold change) pyridoxine ([1]; metabolite pyridoxine): -0.5037
- Log2(fold change) pyruvate ([1]; metabolite pyruvate): -0.3898
- Log2(fold change) riboflavin ([1]; metabolite riboflavin): -0.1185
- Log2(fold change) ribose ([1]; metabolite ribose): -0.0288
- Log2(fold change) ribose-phosphate ([1]; metabolite ribose-phosphate): -0.1512
- Log2(fold change) ribulose-5-phosphate ([1]; metabolite ribulose-5-phosphate): 0.0069
- Log2(fold change) serine ([1]; metabolite serine): -0.0430
- Log2(fold change) sn-glycerol-3-phosphate ([1]; metabolite sn-glycerol-3-phosphate): 0.2262
- Log2(fold change) succinate/Methylmalonic acid ([1]; metabolite succinate/Methylmalonic acid): 0.1026
- Log2(fold change) succinyl-CoA/methylmalonyl-CoA ([1]; metabolite succinyl-CoA/methylmalonyl-CoA): 0.0000
- Log2(fold change) taurine ([1]; metabolite taurine): -0.0060
- Log2(fold change) thiamine ([1]; metabolite thiamine): -0.0860
- Log2(fold change) threonine/homoserine ([1]; metabolite threonine/homoserine): -0.1129
- Log2(fold change) thymidine ([1]; metabolite thymidine): 0.0000
- Log2(fold changes) thymine ([1]; metabolite thymine, log2 fold change): 0.0000
- Log2(fold changes) trehalose-6-Phosphate ([1]; metabolite trehalose-6-Phosphate, log2 fold change): 0.0000
- Log2(fold changes) tryptophan ([1]; metabolite tryptophan, log2 fold change): 0.0186
- Log2(fold changes) tyrosine ([1]; metabolite tyrosine, log2 fold change): 0.0223
- Log2(fold changes) uridine ([1]; metabolite uridine, log2 fold change): 0.0000
- Ratio lowest IC50 8hr/IC50 72hr ([2]; 3D7-A10): 3.0
- IC50 ([2]; 3D7, read-out: Early rings Mean IC50 (IC50^8h), 8-h exposure 0–8 hr, 3D7-A10, survival at 60 h): 0.258 µM
- IC50 ([2]; 3D7, read-out: Early trophozoites Mean IC50 (IC50^8h), 8-h exposure 16–24 hr, 3D7-A10, survival at 60 h): 0.0288 µM
- IC50 ([2]; 3D7, read-out: IC50^8h values, text summary of Table S1): < 0.3 µM
- IC50 ([2]; 3D7, read-out: Late rings Mean IC50 (IC50^8h), 8-h exposure 8–16 hr, 3D7-A10, survival at 60 h): 0.147 µM
- IC50 ([2]; 3D7, read-out: Late trophozoites Mean IC50 (IC50^8h), 8-h exposure 24–32 hr, 3D7-A10, survival at 60 h): 0.0295 µM
- IC50 ([2]; 3D7, read-out: Schizonts Mean IC50 (IC50^8h), 8-h exposure 32–40 hr, 3D7-A10, survival at 60 h): 0.138 µM
- Stage of peak activity (Figure 6) ([2]; period when the parasite was most susceptible (lowest IC50^8h)): only in trophozoites
- Peak Activity (Table S1) ([2]; stage(s) with the lowest IC50^8h): Trophs
- IC50 [3]: 0.0098 µM
